Measured values from US20100240653A1, “BIPHENYL SULFONYL AND PHENYL-HETEROARYL SULFONYL MODULATORS OF THE HISTAMINE H3-RECEPTOR USEFUL FOR THE TREATMENT OF DISORDERS RELATED THERETO” (priority 2006, published 2010).

Tests used:
[1] = molecular target: Histamine H3-receptor (Rattus norvegicus, UniProt Q9QYN8); experiment: [3H]N-alpha-methyl-histamine competitive histamine H3-receptor binding assay (rat brain cortex membranes); conditions: whole rat brain cortex membranes, [3H]-N-α-methyl-histamine 1 nM
Sequence of Histamine H3-receptor (Q9QYN8 1-397 isoform Q9QYN8-3): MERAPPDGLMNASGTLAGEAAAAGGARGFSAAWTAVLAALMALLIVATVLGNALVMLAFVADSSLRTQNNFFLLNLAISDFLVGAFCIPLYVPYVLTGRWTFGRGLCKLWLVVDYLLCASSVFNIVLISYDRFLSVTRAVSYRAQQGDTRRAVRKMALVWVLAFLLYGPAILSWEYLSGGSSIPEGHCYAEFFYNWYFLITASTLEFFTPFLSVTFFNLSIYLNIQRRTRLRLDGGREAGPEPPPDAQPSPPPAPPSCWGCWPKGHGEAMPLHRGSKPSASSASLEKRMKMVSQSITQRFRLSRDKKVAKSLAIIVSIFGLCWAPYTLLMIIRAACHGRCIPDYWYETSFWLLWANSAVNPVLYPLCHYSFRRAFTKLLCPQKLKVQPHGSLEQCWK
Procedure: The histamine receptor binding assay was conducted using standard laboratory procedures as described below. A crude membrane fraction was prepared from whole rat brain cortex using a polytron to homogenize the tissue followed by differential centrifugation in a HEPES-based buffer containing protease inhibitors. Membranes where frozen at −80° C. until needed. Frozen membranes were thawed and resuspended in ice-cold assay buffer consisting of 50 mM TRIS containing 5 mM EDTA (pH=7.4). 50 micrograms (μg) of membrane protein was added to each well of a 96-well assay plate along with test compound and [^3H]-N-α-methyl-histamine (1 nanomolar (nM) final assay concentration). Imetit was used as an assay positive control at varying concentrations. The plate was incubated for 30 min at room temperature. The assay was terminated by rapid filtration through a 96-well glass fiber filtration plate (GF/C) using a cell harvester (Perkin-Elmer). Captured membranes were washed three times with cold assay buffer and plates were dried at 50° C. 35 microliters (μL) of scintillation cocktail was added to each well and membrane-bound radioactivity was recorded using a TopCount 96-well plate scintillation counter (Perkin-Elmer).

[2] = test system: male Sprague Dawley rats; experiment: Blockade of RAMH-induced drinking assay; assay type: in vivo; conditions: rat, 0.3 mg/kg PO, RAMH 3 mg/kg SC, drinking 20 min
Procedure: When administered to rodents, H3 agonists such as R-α-methyl-histamine (RAMH) induce a drinking response that is sensitive to reversal with an H3 antagonist. Blockade of RAMH-induced drinking can therefore be utilized as an in vivo assay for functional H3 antagonist activity. In this assay, male Sprague Dawley rats (250-350 g) were housed three per cage and maintained under a reverse 12 h light cycle (lights off at 1130 h). At 1030 h on the day of test, rats were individually housed in new cages and food was removed. 120 min later, rats were administered test article (vehicle or H3 antagonist, 0.3 mg/kg PO). 30 min later, water was removed, and RAMH (vehicle or RAMH 3 mg/kg salt SC) was administered. 10 min after administration of RAMH, weighed water bottles were placed in the cages, and drinking was allowed for 20 min. Water consumption was determined for each animal by weighing each bottle to the nearest 0.1 g. Data is expressed as percentage reduction in water intake according to the following formula:
[1−[(ANTAGONIST/RAMH)−(VEHICLE/RAMH)/(VEHICLE/RAMH)−(VEHICLENEHICLE)]]*100

[3] = molecular target: T1, human histamine H3-receptor (Homo sapiens, UniProt Q9Y5N1); experiment: Human histamine H3-receptor binding assay, MDS Pharma Services (Taiwan), Catalogue No. 239810
T1 construct: purchased MDS Pharma Services (Taiwan) 239810
T1 sequence (Q9Y5N1 whole entry): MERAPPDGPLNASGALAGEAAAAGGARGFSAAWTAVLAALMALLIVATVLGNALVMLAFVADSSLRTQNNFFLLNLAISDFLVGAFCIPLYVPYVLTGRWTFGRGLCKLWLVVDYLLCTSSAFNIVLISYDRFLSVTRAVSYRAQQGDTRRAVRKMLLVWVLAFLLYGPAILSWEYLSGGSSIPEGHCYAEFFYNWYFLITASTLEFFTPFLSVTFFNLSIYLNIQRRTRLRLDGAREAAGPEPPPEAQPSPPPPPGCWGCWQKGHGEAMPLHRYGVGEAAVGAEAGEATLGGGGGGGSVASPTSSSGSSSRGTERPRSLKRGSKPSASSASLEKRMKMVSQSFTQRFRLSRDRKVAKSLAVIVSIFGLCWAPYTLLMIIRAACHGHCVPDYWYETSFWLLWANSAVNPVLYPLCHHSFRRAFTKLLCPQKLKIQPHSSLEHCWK
Procedure: Compounds of the invention were tested for their ability to bind to the human histamine H3-receptor using the MDS Pharma Services (Taiwan) assay, Catalogue No. 239810.

[4] = test system: Male Sprague-Dawley rats; experiment: Rat polysomnography (EEG/EMG wakefulness); assay type: in vivo; conditions: over 1 h after oral administration at 0.6 mg/kg
Procedure: Animals: Male Sprague-Dawley rats (225-350 g) (Harlan, San Diego, Calif.) were singly housed and maintained in a humidity—(30-70%) and temperature—(20-22° C.) controlled facility on a 12 h:12 h light/dark cycle (lights on at 6:30 A.M.) with free access to food (Harlan-Teklad Western Res., Orange, Calif., Rodent Diet 8604) and water. Rats were allowed at least three days of habituation to the animal facility before surgery.
Rats were anaesthetized with a ketamine/xylazine mixture, and surgically prepared for
EEG and EMG recording. After 2-3 weeks of post-surgical recovery, rats were habituated to polypropylene test cages for at least three days. On test days, the rats were placed in the test chambers and habituated overnight. At 10 am the next day, the rats were administered the test compound, connected to the recording apparatus, and placed back into the test chambers for 3 h.
EEG and EMG data were digitized and stored in 10 s epochs over the three hour test period. […] […] Percent increase in wakefulness was then derived for each rat.

Ki [1]	Structure (SMILES)	% inhibition of RAMH-induced drinking [2]	also measured
2.4 nM	C[C@@H]1CCCN1CCc1ccc(-c2ccc(S(C)(=O)=O)cc2)cc1 [Cmpd 1, (R)-1-[2-(4′-Methanesulfonyl-biphenyl-4-yl)-ethyl]-2-methyl-pyrrolidine]		
	CCS(=O)(=O)c1ccc(-c2ccc(CCN3CCC[C@H]3C)cc2)cc1 [Cmpd 2, (R)-1-[2-(4′-Ethanesulfonyl-biphenyl-4-yl)-ethyl]-2-methyl-pyrrolidine]	82.6 ± 12.9%	
3 nM	COCCS(=O)(=O)c1ccc(-c2ccc(CCN3CCC[C@H]3C)cc2)cc1 [Cmpd 3, (R)-1-{2-[4′-(2-Methoxy-ethanesulfonyl)-biphenyl-4-yl]-ethyl}-2-methyl-pyrrolidine]		
	CCCS(=O)(=O)c1ccc(-c2ccc(CCN3CCC[C@H]3C)cc2)cc1 [Cmpd 5, (R)-2-Methyl-1-{2-[4′-(propane-1-sulfonyl)-biphenyl-4-yl]-ethyl}-pyrrolidine]		Ki [3]: 3.7 nM
1.1 nM	C[C@@H]1CCCN1CCc1ccc(-c2ccc(S(=O)(=O)Cc3ccccc3)cc2)cc1 [Cmpd 6, (R)-2-Methyl-1-[2-(4′-phenylmethanesulfonyl-biphenyl-4-yl)-ethyl]-pyrrolidine]		
	C[C@@H]1CCCN1CCc1ccc(-c2ccc3c(c2)C(=O)CCS3(=O)=O)cc1 [Cmpd 7, 6-{4-[2-((R)-2-Methyl-pyrrolidin-1-yl)-ethyl]-phenyl}-1,1-dioxo-1λ^6-thiochroman-4-one]	92.5 ± 15.8%	Ki [3]: 2.9 nM
1.5 nM	COCCCS(=O)(=O)c1ccc(-c2ccc(CCN3CCC[C@H]3C)cc2)cc1 [Cmpd 8, (R)-1-{2-[4′-(3-Methoxy-propane-1-sulfonyl)-biphenyl-4-yl]-ethyl}-2-methyl-pyrrolidine]		
	C[C@@H]1CCCN1CCc1ccc(-c2ccc(S(=O)(=O)CCO)cc2)cc1 [Cmpd 10, 2-{4′-[2-((R)-2-Methyl-pyrrolidin-1-yl)-ethyl]-biphenyl-4-sulfonyl}-ethanol]		% Increase in wakefulness +/− s.e. [4]: 46 ± 15%
	C[C@@H]1CCCN1CCc1ccc(-c2ccc(S(=O)(=O)CCCO)cc2)cc1 [Cmpd 15, 3-{4′-(2-((R)-2-Methyl-pyrrolidin-1-yl)-ethyl]-biphenyl-4-sulfonyl}-propan-1-ol]	58.8 ± 16.1%	
16 nM	C[C@@H]1CCCN1CCc1ccc(-c2cccc(S(=O)(=O)CCO)c2)cc1 [Cmpd 17, 2-{4′-[2-((R)-2-Methyl-pyrrolidin-1-yl)-ethyl]-biphenyl-3-sulfonyl}-ethanol]		
